According to article PMC8743659, “C1632 suppresses the migration and proliferation of non‐small‐cell lung cancer cells involving LIN28 and FGFR1 pathway” (Journal of Cellular and Molecular Medicine, 2021):

Assays:
CYP2B1 = molecular target: T1, CYP2B1 (Rattus norvegicus, UniProt P00176); assay: Microsomal incubation (cocktail) assay, rat liver microsomes; type: in vitro ADME; details: 100 μM C1632, probe 10 μM bupropion, 30 min, 37°C
T1 construct: 3.4 mg/ml pooled rat liver microsomes; from tissue; host or cells: pooled rat liver microsomes
T1 sequence (P00176 1-491): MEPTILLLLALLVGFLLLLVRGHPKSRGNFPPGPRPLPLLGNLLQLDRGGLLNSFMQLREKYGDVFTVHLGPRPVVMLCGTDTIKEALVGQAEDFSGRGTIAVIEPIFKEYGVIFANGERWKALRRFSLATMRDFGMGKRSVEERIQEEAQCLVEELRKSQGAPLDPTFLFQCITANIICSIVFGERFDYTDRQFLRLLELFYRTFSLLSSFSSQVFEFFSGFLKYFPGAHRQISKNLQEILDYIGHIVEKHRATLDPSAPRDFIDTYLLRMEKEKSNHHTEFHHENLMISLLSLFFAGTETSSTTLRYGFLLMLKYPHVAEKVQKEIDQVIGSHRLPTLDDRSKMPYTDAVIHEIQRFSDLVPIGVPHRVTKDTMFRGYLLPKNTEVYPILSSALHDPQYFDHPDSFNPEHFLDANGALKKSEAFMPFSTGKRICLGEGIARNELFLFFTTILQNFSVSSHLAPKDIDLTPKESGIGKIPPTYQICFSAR
Method: (§1) The microsomal incubation assay[41] was performed at 37°C in a 200 μl incubation system, which consisted of 3.4 mg/ml pooled rat liver microsomes, 100 μM C1632, and probe substrates (5 μM CYP3A2‐midazolam; 10 μM CYP2D1‐dextromethorphan; 250 μM CYP2C11‐tolbutamide; 10 μM CYP2B1‐bupropion; and 0.1 M Tris–HCl [pH 7.4]). After 5 min of incubation, 1 mM NADPH was added, and the assay was terminated after 30 min by cooling at −80°C. Next, 0.2 ml acetonitrile and 20 μl IS (100 ng/ml) were added to the reactant. Finally, the solution was thoroughly vortexed and centrifuged at 12,000 rpm for 10 min. The supernatant was analysed by UHPLC‐MS/MS.[42]

CYP3A2 = molecular target: T2, CYP3A2 (Rattus norvegicus, UniProt P05183); assay: as above; type: in vitro ADME; details: 100 μM C1632, probe 5 μM midazolam, 30 min, 37°C
T2 construct: 3.4 mg/ml pooled rat liver microsomes; from tissue; host or cells: pooled rat liver microsomes
T2 sequence (P05183 1-504): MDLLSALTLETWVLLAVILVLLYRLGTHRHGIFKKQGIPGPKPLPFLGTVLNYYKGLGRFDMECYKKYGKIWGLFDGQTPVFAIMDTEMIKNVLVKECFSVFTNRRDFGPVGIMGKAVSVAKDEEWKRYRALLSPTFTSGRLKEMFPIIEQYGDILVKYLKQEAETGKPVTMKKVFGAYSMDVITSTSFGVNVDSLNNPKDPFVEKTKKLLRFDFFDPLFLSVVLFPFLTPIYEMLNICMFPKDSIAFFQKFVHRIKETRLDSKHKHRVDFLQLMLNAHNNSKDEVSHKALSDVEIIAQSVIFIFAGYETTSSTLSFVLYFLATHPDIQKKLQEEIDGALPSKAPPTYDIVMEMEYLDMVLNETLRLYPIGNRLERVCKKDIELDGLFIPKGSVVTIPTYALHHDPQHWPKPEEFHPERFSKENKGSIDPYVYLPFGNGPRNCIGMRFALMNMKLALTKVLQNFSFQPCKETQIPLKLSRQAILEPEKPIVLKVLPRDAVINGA
Method: as §1

A549 cells [1] = assay: Transwell migration and invasion assay; type: cell-based, human; details: A549, pretreated 5 days, 24 h
Method: (§2) Transwell assay was carried out according to the manufacturer's instructions provided by Transwell Kit (Corning Costar). Briefly, cells were pretreated with indicated concentrations of C1632 for 5 days, then harvested and re‐seeded into insert (transwell permeable support) containing 100 μl serum‐free DMEM medium. The insert was placed into 24‐well plate containing 600 μl of DMEM medium extra added with 10% FBS. 24 h later, cells on the upper surface of the insert were removed with cotton‐tipped swabs. And cells on backside surface of the insert were fixed with 10% formalin, then stained with crystal violet. The insert was washed three times with ddH2O before it is subjected to Nikon Ti microscope observation. Additionally, these inserts were dissolved in 500 μl acetic acid (33%) separately, and the absorbance at 560 nm was detected by the spectrophotometer (DTX880, Beckman Coulter).

A549R cells [2] = assay: Transwell migration and invasion assay; type: cell-based, human; details: pretreated 5 days, 24 h
Method: as §2

A549 cells [3] = assay: Colony formation assay; type: cell-based, human; details: A549, 15, 30 and 60 mg/L, dose-dependent
Method: (§3) First, cells were treated with indicated concentrations of C1632 or 0.01% DMSO for 5 days. Then these cells were separated into single cells that were directly used for cloning. During the process of cloning, C1632‐treated A549 or A549R cells were still maintained in DMEM plus 10% FBS medium containing the indicated concentration of C1632 (15, 30, and 60 mg/L), while the control group was cultured with 0.01% DMSO. Both culture media were changed for every 2 days until 10 days. The number of forming colonies in C1632 or 0.01% DMSO‐treated groups was counted and the images were taken.

A549R cells [4] = assay: Colony formation assay; type: cell-based, human; details: A549R, 15, 30 and 60 mg/L, dose-dependent; stronger than in A549
Method: as §3

A549 cells [5] = assay: Edu staining assay; type: cell-based, human; details: A549, 15, 30 or 60 mg/L, 5 days, dose-dependent
Method: (§4) Edu staining assay was carried out according to Edu staining Kit (Beyotime). First, A549 or A549R cells were seeded in 6‐well plates and cultured in RPMI medium 1640 containing 10% FBS, then treated with C1632 (15, 30, or 60 mg/L) for 5 days. Subsequently, cells were incubated with Edu for 3 h, fixed with 4% paraformaldehyde for 15 min, and permeated with 0.3% Triton X‐100 for another 15 min. Then cells were incubated with the Click Reaction Mixture provided by Edu staining Kit for 30 min at room temperature in dark and then stained with DAPI. Finally, the stained cells were scanned and imaged under Nikon Ti microscope.

A549R cells [6] = assay: Edu staining assay; type: cell-based, human; details: A549R, 15, 30 or 60 mg/L, 5 days, dose-dependent
Method: as §4

effect on CYP2B1 activity (CYP2B1): significantly inhibit | effect on CYP3A2 activity (CYP3A2): significantly inhibit
SMILES: CC(=O)N(C)c1cccc(-c2ccc3nnc(C)n3n2)c1 [C1632]
Transwell migration compared with untreated cells (A549 cells [1]): decreased migration | Transwell migration compared with untreated cells (A549R cells [2]): decreased migration | formation of colony units (A549 cells [3]): inhibited | formation of colony units (A549R cells [4]): inhibited | DNA replication (A549 cells [5]): significant inhibition | DNA replication (A549R cells [6]): significant inhibition
